# Results published in ChEMBL document CHEMBL1201862, “PubChem BioAssay data set” (2004).
#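 Exposure lasted 48 hours, with cells grown in 96-well plates and compounds tested at five concentrations. GI50 marks 50% less growth.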 The source made the active and inactive calls. No stated cut-off is given here; in the data, active = GI50 up to about 1.1 µM and inactive = higher.
# Columns and labels:
# Assay in all cases: NCI anticancer screen, dose series, 48 h
# BT-549 = test system: BT-549
# CCRF-CEM = test system: CCRF-CEM
# COLO 205 = test system: COLO 205
# IGROV-1 = test system: IGROV-1
# Malme-3M = test system: Malme-3M
# NCI-H226 = test system: NCI-H226
# NCI-H522 = test system: NCI-H522
# SF-539 = test system: SF-539
# SNB-19 = test system: SNB-19
# UO-31 = test system: UO-31
# 786-0 = test system: 786-0
# A498 = test system: A498
# A549 = test system: A549
# ACHN = test system: ACHN
# CAKI-1 = test system: CAKI-1
# DU-145 = test system: DU-145
# EKVX = test system: EKVX
# HCC 2998 = test system: HCC 2998
# HCT-116 = test system: HCT-116
# HCT-15 = test system: HCT-15
# HOP-62 = test system: HOP-62
# HOP-92 = test system: HOP-92
# HT-29 = test system: HT-29
# Hs-578T = test system: Hs-578T
# K562 = test system: K562
# KM12 = test system: KM12
# LOX IMVI = test system: LOX IMVI
# M14 = test system: M14
# MCF7 = test system: MCF7
# MDA-MB-231 = test system: MDA-MB-231
# MDA-MB-435 = test system: MDA-MB-435
# MDA-N = test system: MDA-N
# MOLT-4 = test system: MOLT-4
# NCI-H23 = test system: NCI-H23
# NCI-H460 = test system: NCI-H460
# NCI/ADR-RES = test system: NCI/ADR-RES
# OVCAR-3 = test system: OVCAR-3
# OVCAR-4 = test system: OVCAR-4
# OVCAR-5 = test system: OVCAR-5
# OVCAR-8 = test system: OVCAR-8
# PC-3 = test system: PC-3
# RXF 393 = test system: RXF 393
# SF-268 = test system: SF-268
# SF-295 = test system: SF-295
# SK-MEL-28 = test system: SK-MEL-28
# SK-MEL-2 = test system: SK-MEL-2
# SK-MEL-5 = test system: SK-MEL-5
# SK-OV-3 = test system: SK-OV-3
# SN12C = test system: SN12C
# SNB-75 = test system: SNB-75
# SR = test system: SR
# SW-620 = test system: SW-620
# T47D = test system: T47D
# TK-10 = test system: TK-10
# U-251 = test system: U-251
# UACC-257 = test system: UACC-257
# UACC-62 = test system: UACC-62
# HL-60 = test system: HL-60
# RPMI-8226 = test system: RPMI-8226
compound,measurement,setting,value
NC1CCC[C@@H](O)[C@H]1O (stereo not given in full),GI50,BT-549,> 100 µM (inactive)
same,GI50,CCRF-CEM,> 100 µM (inactive)
same,GI50,COLO 205,> 100 µM (inactive)
same,GI50,IGROV-1,> 100 µM (inactive)
same,GI50,Malme-3M,> 100 µM (inactive)
same,GI50,NCI-H226,> 100 µM (inactive)
same,GI50,NCI-H522,> 100 µM (inactive)
same,GI50,SF-539,> 100 µM (inactive)
same,GI50,SNB-19,> 100 µM (inactive)
same,GI50,UO-31,76.7 µM (inactive)
COC(=O)C1CCCCCCCCCCC12SCCCS2 (stereo not given),GI50,786-0,14.6 µM (inactive)
same,GI50,A498,29.5 µM (inactive)
same,GI50,A549,17.4 µM (inactive)
same,GI50,ACHN,19 µM (inactive)
same,GI50,CAKI-1,26.3 µM (inactive)
same,GI50,CCRF-CEM,23 µM (inactive)
same,GI50,COLO 205,18.6 µM (inactive)
same,GI50,DU-145,16.7 µM (inactive)
same,GI50,EKVX,19.4 µM (inactive)
same,GI50,HCC 2998,20.9 µM (inactive)
same,GI50,HCT-116,16.3 µM (inactive)
same,GI50,HCT-15,26.7 µM
same,GI50,HOP-62,21.2 µM (inactive)
same,GI50,HOP-92,19.4 µM (inactive)
same,GI50,HT-29,32.8 µM (inactive)
same,GI50,Hs-578T,30.4 µM (inactive)
same,GI50,IGROV-1,17.7 µM (inactive)
same,GI50,K562,24.5 µM (inactive)
same,GI50,KM12,18.1 µM (inactive)
same,GI50,LOX IMVI,18.3 µM (inactive)
same,GI50,M14,15.5 µM (inactive)
same,GI50,MCF7,43.9 µM (inactive)
same,GI50,MDA-MB-231,21.7 µM (inactive)
same,GI50,MDA-MB-435,16.4 µM (inactive)
same,GI50,MDA-N,30.8 µM (inactive)
same,GI50,MOLT-4,15.8 µM (inactive)
same,GI50,Malme-3M,20.3 µM (inactive)
same,GI50,NCI-H226,18.6 µM (inactive)
same,GI50,NCI-H23,34.8 µM (inactive)
same,GI50,NCI-H460,37.2 µM (inactive)
same,GI50,NCI-H522,17.2 µM (inactive)
same,GI50,NCI/ADR-RES,20.7 µM (inactive)
same,GI50,OVCAR-3,18.4 µM (inactive)
same,GI50,OVCAR-4,16.5 µM (inactive)
same,GI50,OVCAR-5,16.8 µM (inactive)
same,GI50,OVCAR-8,23.4 µM (inactive)
same,GI50,PC-3,17.5 µM (inactive)
same,GI50,RXF 393,19 µM (inactive)
same,GI50,SF-268,23 µM (inactive)
same,GI50,SF-295,16.5 µM (inactive)
same,GI50,SF-539,25.3 µM (inactive)
same,GI50,SK-MEL-28,18.4 µM (inactive)
same,GI50,SK-MEL-2,18.6 µM (inactive)
same,GI50,SK-MEL-5,18.7 µM (inactive)
same,GI50,SK-OV-3,49.5 µM (inactive)
same,GI50,SN12C,16.9 µM (inactive)
same,GI50,SNB-19,18.2 µM (inactive)
same,GI50,SNB-75,19.1 µM (inactive)
same,GI50,SR,11.5 µM (inactive)
same,GI50,SW-620,27.2 µM (inactive)
same,GI50,T47D,35.7 µM (inactive)
same,GI50,TK-10,20.1 µM (inactive)
same,GI50,U-251,17.3 µM (inactive)
same,GI50,UACC-257,17.5 µM (inactive)
same,GI50,UACC-62,25.6 µM (inactive)
same,GI50,UO-31,18.9 µM (inactive)
C=C1C[C@]23CC[C@@H]4C(CO)(CO)CC(=O)C[C@]4(C)[C@@H]2C(O)C[C@H]1C3 (stereo not given in full),GI50,786-0,> 100 µM (inactive)
same,GI50,A549,> 100 µM (inactive)
same,GI50,ACHN,> 100 µM (inactive)
same,GI50,BT-549,> 100 µM (inactive)
same,GI50,CAKI-1,> 100 µM (inactive)
same,GI50,CCRF-CEM,> 100 µM (inactive)
same,GI50,COLO 205,> 100 µM (inactive)
same,GI50,DU-145,> 100 µM (inactive)
same,GI50,EKVX,> 100 µM (inactive)
same,GI50,HCC 2998,> 100 µM (inactive)
same,GI50,HCT-116,> 100 µM (inactive)
same,GI50,HCT-15,> 100 µM
same,GI50,HL-60,> 100 µM (inactive)
same,GI50,HOP-62,> 100 µM (inactive)
same,GI50,HOP-92,> 100 µM (inactive)
same,GI50,HT-29,> 100 µM (inactive)
same,GI50,Hs-578T,> 100 µM (inactive)
same,GI50,IGROV-1,> 100 µM (inactive)
same,GI50,K562,> 100 µM (inactive)
same,GI50,KM12,> 100 µM (inactive)
same,GI50,LOX IMVI,> 100 µM (inactive)
same,GI50,M14,> 100 µM (inactive)
same,GI50,MCF7,> 100 µM (inactive)
same,GI50,MDA-MB-231,> 100 µM (inactive)
same,GI50,MDA-MB-435,> 100 µM (inactive)
same,GI50,MDA-N,> 100 µM (inactive)
same,GI50,MOLT-4,> 100 µM (inactive)
same,GI50,Malme-3M,> 100 µM (inactive)
same,GI50,NCI-H226,> 100 µM (inactive)
same,GI50,NCI-H23,> 100 µM (inactive)
same,GI50,NCI-H460,> 100 µM (inactive)
same,GI50,NCI-H522,> 100 µM (inactive)
same,GI50,NCI/ADR-RES,> 100 µM (inactive)
same,GI50,OVCAR-3,> 100 µM (inactive)
same,GI50,OVCAR-4,> 100 µM (inactive)
same,GI50,OVCAR-5,> 100 µM (inactive)
same,GI50,OVCAR-8,> 100 µM (inactive)
same,GI50,PC-3,> 100 µM (inactive)
same,GI50,RPMI-8226,> 100 µM (inactive)
same,GI50,SF-268,> 100 µM (inactive)
same,GI50,SF-295,> 100 µM (inactive)
same,GI50,SF-539,> 100 µM (inactive)
same,GI50,SK-MEL-28,> 100 µM (inactive)
same,GI50,SK-MEL-2,> 100 µM (inactive)
same,GI50,SK-OV-3,> 100 µM (inactive)
same,GI50,SN12C,> 100 µM (inactive)
same,GI50,SNB-19,> 100 µM (inactive)
same,GI50,SNB-75,> 100 µM (inactive)
same,GI50,SR,> 100 µM (inactive)
same,GI50,SW-620,> 100 µM (inactive)
same,GI50,TK-10,> 100 µM (inactive)
same,GI50,U-251,> 100 µM (inactive)
same,GI50,UACC-257,> 100 µM (inactive)
same,GI50,UACC-62,> 100 µM (inactive)
same,GI50,UO-31,> 100 µM (inactive)
OCC1NC(CO)C(O)C1O (stereo not given),GI50,BT-549,> 100 µM (inactive)
same,GI50,CCRF-CEM,> 100 µM (inactive)
same,GI50,HL-60,> 100 µM (inactive)
same,GI50,HOP-62,> 100 µM (inactive)
same,GI50,Hs-578T,> 100 µM (inactive)
same,GI50,MDA-N,> 100 µM (inactive)
same,GI50,OVCAR-3,> 100 µM (inactive)
same,GI50,OVCAR-4,> 100 µM (inactive)
same,GI50,OVCAR-5,> 100 µM (inactive)
same,GI50,PC-3,> 100 µM (inactive)
same,GI50,RPMI-8226,> 100 µM (inactive)
same,GI50,RXF 393,> 100 µM (inactive)
same,GI50,SK-MEL-2,> 100 µM (inactive)
same,GI50,SN12C,> 10 µM (inactive)
same,GI50,SNB-19,> 100 µM (inactive)
same,GI50,SR,> 100 µM (inactive)
same,GI50,SW-620,> 100 µM (inactive)
same,GI50,U-251,> 100 µM (inactive)
same,GI50,UACC-257,> 100 µM (inactive)
